Measured values taken from patent US20250230193A1, “CYCLIC COMPOUND HAVING SELECTIVE KRAS INHIBITORY EFFECT ON HRAS AND NRAS” (CHUGAI SEIYAKU KABUSHIKI KAISHA, priority 2022, published 2025).
*1 amine or outer side, *2 acyl side, *3 side chain or, on linkers, in order; H or OH if unused. Where a SMILES comes first, the peptide text is derived from it. Bridges are numbered along the chain shown (N, C = ends). [ ]: non-standard residue; d: D form. The star is where a group is joined. hPhe(3,5-F2-4-CF3) = N[C@@H](CCc1cc(F)c(C(F)(F)F)c(F)c1)C(=O)O; hPhe(3-Cl-4-CF3) = N[C@@H](CCc1ccc(C(F)(F)F)c(Cl)c1)C(=O)O; NPrPhe(4-CF3) = CCCN[C@@H](Cc1ccc(C(F)(F)F)cc1)C(=O)O; NEtAsp = CCN([C@@H](CC(=O)[*:3])C(=O)[*:2])[*:1]; X44 = CCCN([C@@H](Cc1ccccc1)C(=O)[*:2])[*:1]; NMeGly(cPent) = CN[C@H](C(=O)O)C1CCCC1; NMeD = CN[C@@H](CC(=O)O)C(=O)O; NMeL = CN[C@@H](CC(C)C)C(=O)O; αMeV = CC(C)[C@](C)(N)C(=O)O; Morpholide = C1CN(*)CCO1; NMeA = CN[C@@H](C)C(=O)O; Ac5c = NC1(C(=O)O)CCCC1; Aze = O=C(O)[C@@H]1CCN1; Ac4c = NC1(C(=O)O)CCC1; Sar = CNCC(=O)O

Tests used:
[1] = target: GDP-bound NRAS wild-type protein (Homo sapiens, UniProt P01111); experiment: Binding to NRAS by surface plasmon resonance (SPR), Single Cycle Kinetics
[2] = target: GDP-bound HRAS wild-type protein (Homo sapiens, UniProt P01112); experiment: Binding to HRAS by surface plasmon resonance (SPR), Single Cycle Kinetics
Chain of GDP-bound HRAS wild-type protein (P01112 whole entry): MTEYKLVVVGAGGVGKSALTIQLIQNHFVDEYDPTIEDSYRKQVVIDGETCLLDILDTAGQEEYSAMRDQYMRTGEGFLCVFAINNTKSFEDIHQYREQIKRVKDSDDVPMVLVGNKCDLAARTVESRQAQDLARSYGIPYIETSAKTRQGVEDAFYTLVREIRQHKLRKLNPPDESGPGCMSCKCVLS

Chain of GDP-bound NRAS wild-type protein (P01111 whole entry): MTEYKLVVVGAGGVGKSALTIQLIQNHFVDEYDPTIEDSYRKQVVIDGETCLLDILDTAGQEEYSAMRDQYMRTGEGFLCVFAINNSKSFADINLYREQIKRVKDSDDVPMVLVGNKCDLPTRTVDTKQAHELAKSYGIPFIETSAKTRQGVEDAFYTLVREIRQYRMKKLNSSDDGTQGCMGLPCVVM

In the case of `CCCN1C(=O)CN(C)C(=O)CN(C)C(=O)[C@H]([C@@H](C)CC)NC(=O)[C@H](CC(C)C)N(C)C(=O)C[C@@H](C(=O)N(C)C)N(C)C(=O)[C@H](C2CCCC2)N(C)C(=O)[C@](C)(C(C)C)NC(=O)[C@@H]2CCCN2C(=O)[C@H](CCc2cc(F)c(C(F)(F)F)c(F)c2)NC(=O)CN(C)C(=O)[C@@H]1Cc1ccc(C(F)(F)F)cc1` [PP0735] ([NMeL]I[Sar][Sar][NPrPhe(4-CF3)][Sar][hPhe(3,5-F2-4-CF3)]P[αMeV][NMeGly(cPent)][NMeD]-NMe2; lactam N-11), the “NRAS/KRAS (ratio of KD value with respect to GDP-bound NRAS wild-type protein to KD value with respect to KRAS)” value ([1]; KD ratio NRAS/KRAS, SPR) is reported as “B (a compound having 3 or more and less than 10 is denoted as B)” and the “HRAS/KRAS (ratio of KD value with respect to GDP-bound HRAS wild-type protein to KD value with respect to KRAS)” value ([2]; KD ratio HRAS/KRAS, SPR) is reported as “C (A compound having a KD ratio of 0.1 or more and less than 3 is denoted as C)”.
`CCCN1C(=O)CN(C)C(=O)CN(C)C(=O)[C@H]([C@@H](C)CC)NC(=O)[C@H](CC(C)C)N(C)C(=O)C[C@@H](C(=O)N2CCOCC2)N(C)C(=O)[C@H](C2CCCC2)N(C)C(=O)C2(CCCC2)NC(=O)[C@@H]2CCCN2C(=O)[C@H](CCc2ccc(C(F)(F)F)c(Cl)c2)NC(=O)CN(C)C(=O)[C@@H]1Cc1ccccc1` [PP0211] ([NMeL]I[Sar][Sar][X44][Sar][hPhe(3-Cl-4-CF3)]P[Ac5c][NMeGly(cPent)][NMeD]-Morpholide; lactam N-11) was tested, and the “NRAS/KRAS (ratio of KD for GDP-bound NRAS wild-type to KD for KRAS)” value ([1]; KD ratio NRAS/KRAS, SPR) was “B (a compound having 3 or more and less than 10 is denoted as B)” and the “HRAS/KRAS (ratio of KD for GDP-bound HRAS wild-type to KD for KRAS)” value ([2]; KD ratio HRAS/KRAS, SPR) was “C (A compound having a KD ratio of 0.1 or more and less than 3 is denoted as C)”.
`CCO[C@@H]1C[C@H]2C(=O)NC3(CCC3)C(=O)N(C)[C@@H](C3CCCC3)C(=O)N(CC)[C@H](C(=O)N(C)C)CC(=O)N(C)[C@@H](CC)C(=O)N[C@@H]([C@@H](C)CC)C(=O)N(C)CC(=O)N(C)[C@H]3CCCCCN(C3=O)[C@@H](Cc3ccc(C(F)(F)F)cc3)C(=O)N(C)CC(=O)N[C@@H](CCc3cc(F)c(C(F)(F)F)c(F)c3)C(=O)N2C1` [PP0633] was tested, and the “NRAS/KRAS (ratio of KD value with respect to GDP-bound NRAS wild-type protein to KD value with respect to KRAS)” value ([1]; KD ratio NRAS/KRAS, SPR) was “B (a compound having 3 or more and less than 10 is denoted as B)” and the “HRAS/KRAS (ratio of KD value with respect to GDP-bound HRAS wild-type protein to KD value with respect to KRAS)” value ([2]; KD ratio HRAS/KRAS, SPR) was “B (a compound having 3 or more and less than 10 is denoted as B)”.
In the case of `CCO[C@@H]1C[C@H]2C(=O)NC3(CCC3)C(=O)N(C)[C@@H](C3CCCC3)C(=O)N(C)[C@H](C(=O)N3CCOCC3)CC(=O)N(C)[C@@H](CC3CCCCC3)C(=O)N[C@@H]([C@@H](C)CC)C(=O)N(C)CC(=O)N(C)[C@H]3CCCCCN(C3=O)[C@@H](Cc3ccc(C(F)(F)F)cc3)C(=O)N(C)CC(=O)N[C@@H](CCc3cc(F)c(C(F)(F)F)c(F)c3)C(=O)N2C1` [PP0686], the “NRAS/KRAS (ratio of KD value with respect to GDP-bound NRAS wild-type protein to KD value with respect to KRAS)” value ([1]; KD ratio NRAS/KRAS, SPR) is reported as “B (a compound having 3 or more and less than 10 is denoted as B)” and the “HRAS/KRAS (ratio of KD value with respect to GDP-bound HRAS wild-type protein to KD value with respect to KRAS)” value ([2]; KD ratio HRAS/KRAS, SPR) is reported as “B (a compound having 3 or more and less than 10 is denoted as B)”.
`CCCN1C(=O)[C@@H]2CCN2C(=O)[C@H](C)N(C)C(=O)[C@H]([C@@H](C)CC)NC(=O)[C@H](CC(C)C)N(C)C(=O)C[C@@H](C(=O)N(C)C)N(CC)C(=O)[C@H](C2CCCC2)N(C)C(=O)C2(CCC2)NC(=O)[C@@H]2CCCN2C(=O)[C@H](CCc2ccc(C(F)(F)F)c(Cl)c2)NC(=O)CN(C)C(=O)[C@@H]1Cc1ccc(C(F)(F)F)cc1` [PP1957] ([NMeL]I[NMeA][Aze][NPrPhe(4-CF3)][Sar][hPhe(3-Cl-4-CF3)]P[Ac4c][NMeGly(cPent)][NEtAsp]-NMe2; lactam N-11) was tested, and the “NRAS/KRAS (ratio of KD value for NRAS to KD value for KRAS)” value ([1]; KD ratio, GDP-bound NRAS wild-type vs GDP-bound KRAS wild-type, SPR) was “C (A compound having a KD ratio of 0.1 or more and less than 3 is denoted as C)” and the “HRAS/KRAS (ratio of KD value for HRAS to KD value for KRAS)” value ([2]; KD ratio, GDP-bound HRAS wild-type vs GDP-bound KRAS wild-type, SPR) was “B (a compound having 3 or more and less than 10 is denoted as B)”.
`CCO[C@@H]1C[C@H]2C(=O)NC3(CC(C)(C)C3)C(=O)N(C)[C@@H](C(CC)CC)C(=O)N(C)[C@H](C(=O)N(C)C)CC(=O)N(C)[C@@H](CC)C(=O)N[C@@H]([C@@H](C)CC)C(=O)N(C)CC(=O)N(C)[C@H]3C/C=C\CCN(C3=O)[C@@H](Cc3ccc(C)cc3)C(=O)N(C)CC(=O)N[C@@H](CCc3ccc(Cl)c(Cl)c3)C(=O)N2C1` [PP2188] was tested, and the “NRAS/KRAS (ratio of KD value with respect to NRAS to KD value with respect to KRAS)” value ([1]; SPR, GDP-bound NRAS wild-type vs GDP-bound KRAS wild-type) was “AA (a compound having 20 or more is denoted as AA)” and the “HRAS/KRAS (ratio of KD value with respect to HRAS to KD value with respect to KRAS)” value ([2]; SPR, GDP-bound HRAS wild-type vs GDP-bound KRAS wild-type) was “A (a compound having 10 or more and less than 20 is denoted as A)”.
In the case of `CCC[C@H]1C(=O)N[C@@H]([C@@H](C)CC)C(=O)N(C)CC(=O)N(C)[C@H]2C/C=C\CCN(C2=O)[C@@H](Cc2ccc(C)cc2)C(=O)N(C)CC(=O)N[C@@H](CCc2ccc3c(C)c(C)n(C)c3c2)C(=O)N2C[C@H](OCC)C[C@H]2C(=O)NC2(CC(C)(C)C2)C(=O)N(C)[C@@H](C2CCCC2)C(=O)N(C)[C@H](C(=O)N(C)C)CC(=O)N1C` [PP2895], the “NRAS/KRAS (ratio of KD value with respect to GDP-bound NRAS wild-type protein to KD value with respect to KRAS)” value ([1]; KD ratio NRAS/KRAS, class symbols) is reported as “A (a compound having 10 or more and less than 20 is denoted as A)” and the “HRAS/KRAS (ratio of KD value with respect to GDP-bound HRAS wild-type protein to KD value with respect to KRAS)” value ([2]; KD ratio HRAS/KRAS, class symbols) is reported as “A (a compound having 10 or more and less than 20 is denoted as A)”.
